Data set [1] has as its system Phytophthora infestans. It is filed as in vivo, Phytophthora infestans on tomato (Outdoor Girl).
A further data set relates to Alternaria solani. Nature of the data set: Compound 16 and copper materials against tomato early blight (Example 37, Tables 17-20). It is filed as in vivo, Alternaria solani on tomato (Outdoor Girl).
The test system of data set [2] is Colletotrichum lagenarium. Nature of the data set: Compound 16 and copper materials against cucumber anthracnose (Example 37, Tables 21-24). It counts as in vivo, Colletotrichum lagenarium on cucumber (Bush Pickle).
The test system of data set [3] is Leptosphaeria nodorum (LEPTNO). Nature of the data set: In vitro fungitoxicity of hydrazones with and without copper towards Leptosphaeria nodorum (Example 26). It counts as cell-based. The note with it: 72 h at 25° C.; for LEPTNO % Inhn. Plus Copper Observed: copper-plus medium (CuCl2.2H2O).
The subject of data set [4] is Phytophthora infestans. It counts as in vivo, Phytophthora infestans on tomato. The note with it: hydrazone 50 ppm + 50 μM CuCl2.2H2O, applied 24 h before inoculation, assessed 7 days after inoculation, tomato.
In another data set the test system is Phytophthora capsici. The experiment in a line: In vitro fungitoxicity of hydrazones with and without copper towards Phytophthora capsici (Example 28, Table 3). It counts as cell-based. The note with it: 48 h; for % Inhn Plus copper Observed: copper-plus AS medium (CuCl2, 50 μM).
The test system of data set [5] is Leptosphaeria nodorum (LEPTNO). Nature of the data set: Isolated metal-hydrazone complexes versus parent hydrazones, in vitro, Leptosphaeria nodorum (Example 31, Table 7). It counts as cell-based. The note with it: Parastagonospora nodorum; 0.1 μg/mL; copper-minus medium; 72 h.
Data set [6] has as its system Leptosphaeria nodorum (glume blotch of wheat). The experiment in a line: Cu-hydrazone complexes versus parent hydrazones against glume blotch of wheat (Example 32, Table 8). It counts as in vivo, Leptosphaeria nodorum on wheat (cultivar Yuma). The note with it: Parastagonospora nodorum, 200 ppm spray, inoculated after 24 h.
The next data set concerns Ustilago maydis. Nature of the data set: In vitro fungitoxicity of hydrazones with and without copper towards Ustilago maydis (Example 29, Table 4). It counts as cell-based. Conditions: 1 μg/mL, 48 h.
Data set [7] has as its system Septoria tritici isolate USA-184. The experiment in a line: In vitro fungitoxicity of hydrazones with and without copper towards Septoria tritici (Example 30, Table 5). It is filed as cell-based. Conditions: Zymoseptoria tritici, 0.05 μg/mL.
Where [8] appears, read: Phytophthora capsici, 0.039 μg/mL, copper-minus AS medium, read-out: % Inhn Minus copper Observed.
Setting [9] is: Parastagonospora nodorum, 72 h, compound 0.05 μg/mL, copper-minus medium, read-out: LEPTNO % Inhn. Minus Copper Observed.

Each structure is given as a SMILES string. Read-outs that look alike come from different tables or passages of the source.

Take `O=C(N/N=C/c1cc(Cl)cc(Cl)c1O)c1ccccc1` [Compound 16]: the “% Control of Tomato Late Blight” value in the data set on Phytophthora infestans [1] (hydrazone 10 μM alone) turned out to be 1.5%; with Phytophthora infestans [1] (hydrazone 50 μM alone), 11.3%; in the data set on Phytophthora infestans [1] (hydrazone 200 μM alone) it was 21.4%; with Phytophthora infestans [1] (hydrazone 400 μM alone) it was 25.7%. The “% Control of Tomato Early Blight” value in the data set on Alternaria solani (hydrazone 10 μM alone) came out at 3.9%; with Alternaria solani (hydrazone 50 μM alone), 8%; in the data set with Alternaria solani (hydrazone 200 μM alone) it was 28.4%; in the data set with Alternaria solani (hydrazone 400 μM alone), 32.4%. Besides, the “% Control of Cucumber Anthracnose” value in data set [2] (hydrazone 10 μM alone) stood at 10%; in [2] (hydrazone 50 μM alone), 33.8%; in data set [2] (hydrazone 200 μM alone), 63.8%; in [2] (hydrazone 400 μM alone), 70.8%.
With `O=C(N/N=C/c1cc(Cl)cc(Cl)c1O)c1c(Cl)cccc1Cl` [Example 43], the melting point lay in the range of 250 to 252 °C. Moreover, the inhibition of growth at 0.156 µg/mL in data set [3] (Parastagonospora nodorum, 72 h, compound 0.156 μg/mL, copper-minus medium, read-out: LEPTNO % Inhn. Minus Copper Observed) was 14.2%. In addition, in data set [3] (compound 0.156 μg/mL), the “LEPTNO % Inhn. Plus Copper Observed” value amounted to 75.4%. Besides, the “TLB % Control” value in the data set with Phytophthora infestans [4] was 68.8%. Moreover, the “% Inhn Plus copper Observed” value in the data set on Phytophthora capsici (0.039 μg/mL) came to 90.3%. Moreover, the inhibition of growth at 0.039 µg/mL in the data set with Phytophthora capsici (setting [8]) stood at 54.2%. For the same compound, in data set [5], the inhibition at 0.1 µg/mL came out at 3.6%. Moreover, the pest or weed control at 200 ppm in data set [6] stood at 0%.
Consider `O=C(N/N=C/c1cc(Cl)cc(Cl)c1O)c1ccccc1O` [Example 69], for which the inhibition of growth at 0.05 µg/mL in data set [3] (setting [9]) was found to be 19.3%; in the data set on Phytophthora capsici (Phytophthora capsici, 0.050 μg/mL, copper-minus AS medium, read-out: % Inhn Minus copper Observed), 0%. In addition, in [3] (compound 0.05 μg/mL), the “LEPTNO % Inhn. Plus Copper Observed” value was 96.9%. For the same compound, in the data set on Phytophthora infestans [4], the “TLB % Control” value is 90.8%. The “% Inhn Plus copper Observed” value in the data set on Phytophthora capsici (0.050 μg/mL) was determined as 87.6%. In the data set with Ustilago maydis (copper-plus medium (CuCl2, 10 μM)), the “% Inhn. Plus copper Observed” value was determined as 96.2%. For the same compound, the inhibition of growth at 1 µg/mL in the data set on Ustilago maydis (Mycosarcoma maydis, copper-minus medium, read-out: % Inhn. Minus copper Observed) is 0%. Moreover, the inhibition at 0.05 µg/mL is 0% in [7] (Colby formula, CuCl2, read-out: % Inhibition Plus copper Predicted); 0% in [7] (copper-minus medium, 90 h, read-out: % Inhibition Minus copper Observed); 96.7% in data set [7] (copper-plus medium CuCl2, 90 h, read-out: % Inhibition Plus copper Observed). For the same compound, the inhibition at 0.1 µg/mL in data set [5] was 32.4%. Besides, the pest or weed control at 200 ppm in data set [6] turned out to be 25%.
Take `O=C(N/N=C/c1cc(Cl)cc(Cl)c1O)c1cccc(Cl)c1` [Example 70]: the inhibition of growth at 0.05 µg/mL in [3] (setting [9]) was 19.6%. The “LEPTNO % Inhn. Plus Copper Observed” value in [3] (compound 0.05 μg/mL) was determined as 98.2%. Further, in the data set on Phytophthora infestans [4], the “TLB % Control” value was 93.1%. The inhibition at 0.1 µg/mL in [5] was 29.4%. The pest or weed control at 200 ppm in data set [6] was 0%.
On the same counts, the results for `O=C(N/N=C/c1cc(Cl)cc(Cl)c1O)c1ccc([N+](=O)[O-])cc1` [Example 76] are 0%, 97.0%, 89.8%, 92.8% and 0%.
Turning to `Cc1ccccc1C(=O)N/N=C/c1cc(Cl)cc(Cl)c1O` [Example 77], the inhibition of growth at 0.05 µg/mL in [3] (setting [9]) came to 7.6%. Besides, the “LEPTNO % Inhn. Plus Copper Observed” value in data set [3] (compound 0.05 μg/mL) turned out to be 96.1%. Also, the “TLB % Control” value in the data set on Phytophthora infestans [4] worked out at 55.5%. Also, in data set [5], the inhibition at 0.1 µg/mL was 10.6%. The pest or weed control at 200 ppm in [6] is 0%.
`O=C(N/N=C/c1cc(Cl)cc(Cl)c1O)c1cc(Cl)ccc1Cl` [Example 83] registered a melting point of 189 to 191 °C. In addition, the inhibition of growth at 0.05 µg/mL in data set [3] (setting [9]) was found to be 5.9%. In addition, the “LEPTNO % Inhn. Plus Copper Observed” value in data set [3] (compound 0.05 μg/mL) is given as 98.0%. Besides, the “TLB % Control” value in the data set on Phytophthora infestans [4] came to 60.6%. Further, the “% Inhn Plus copper Observed” value in the data set with Phytophthora capsici (0.039 μg/mL) amounted to 96.2%. Also, the inhibition of growth at 0.039 µg/mL in the data set on Phytophthora capsici (setting [8]) is 27.9%. In addition, in [5], the inhibition at 0.1 µg/mL is 27.9%. Besides, the pest or weed control at 200 ppm in data set [6] worked out at 38%.
As for `O=C(N/N=C/c1cc(Cl)cc(Cl)c1O)c1ccccc1Br` [Example 84], the inhibition of growth at 0.05 µg/mL in data set [3] (setting [9]) was determined as 5.6%. In addition, the “LEPTNO % Inhn. Plus Copper Observed” value in data set [3] (compound 0.05 μg/mL) is 95.5%. Moreover, in the data set on Phytophthora infestans [4], the “TLB % Control” value is on record as 83.6%. For the same compound, the “% Inhn Plus copper Observed” value with Phytophthora capsici (0.039 μg/mL) was 95.0%. In addition, the inhibition of growth at 0.039 µg/mL with Phytophthora capsici (setting [8]) was 47.5%. Moreover, the inhibition at 0.1 µg/mL in data set [5] amounted to 6.7%. Also, in [6], the pest or weed control at 200 ppm came out at 37%.
For the compound `O=C(N/N=C/c1cc(Cl)cc(Cl)c1O)c1ccccc1[N+](=O)[O-]` [Example 96], the inhibition of growth at 0.05 µg/mL in data set [3] (setting [9]) stood at 1.2%. Moreover, the “LEPTNO % Inhn. Plus Copper Observed” value in data set [3] (compound 0.05 μg/mL) amounted to 93.6%. In addition, in the data set with Phytophthora infestans [4], the “TLB % Control” value stood at 78.2%. Moreover, in the data set with Phytophthora capsici (0.039 μg/mL), the “% Inhn Plus copper Observed” value was 91.9%. The inhibition of growth at 0.039 µg/mL in the data set with Phytophthora capsici (setting [8]) was 55.2%. Further, the inhibition at 0.1 µg/mL in data set [5] worked out at 10.7%. For the same compound, in data set [6], the pest or weed control at 200 ppm was found to be 0%.
`O=C(N/N=C/c1cc(Cl)cc(Cl)c1O)c1ccc(OC(F)(F)F)cc1` [Example 100] showed a melting point of 220 to 229 °C. Moreover, in data set [3] (setting [9]), the inhibition of growth at 0.05 µg/mL was found to be 8.2%. Further, the “LEPTNO % Inhn. Plus Copper Observed” value in data set [3] (compound 0.05 μg/mL) worked out at 97.0%. Moreover, the “TLB % Control” value in the data set with Phytophthora infestans [4] was 74.2%. For the same compound, the “% Inhn Plus copper Observed” value in the data set with Phytophthora capsici (0.039 μg/mL) came to 88.8%. Also, in the data set with Phytophthora capsici (setting [8]), the inhibition of growth at 0.039 µg/mL came to 10%. For the same compound, the inhibition at 0.1 µg/mL in data set [5] worked out at 24.7%. Further, in [6], the pest or weed control at 200 ppm worked out at 0%.

The term inhibition denotes the drop in the measured response relative to a control, in per cent. A word on the pest or weed control: it is the degree to which the test organism was suppressed or injured, in per cent. The melting point is the temperature of the solid-liquid transition.

The values are drawn from patent US20120010075A1 (priority 2009, published 2012).
